In patent US20250248957A1, “CELL DIFFERENTIATION” (JOHN HEMMING TRADING LTD, priority 2022, published 2025):

Tests used:
Assay type in all cases: in vivo, human
[1] = Facial skin quality (number of blemishes); details: 2-40 g citrate daily for 6 weeks; before: 25; FIG. 6
Source text: Administration of citrate was also found to improve facial skin quality following administration of between 2 and 40 g of citrate daily for a period of 6 weeks.

precancerous spot = test: Appearance of a precancerous spot on the skin; details: about 3 g citrate daily for about 3 months; FIG. 7
[2] = test system: muscle stem cells (satellite cells); test: Muscle mass of the subject after citrate administration; details: total daily citrate dose 3.95 g
Method: (§1) Citrate was administered to the subject in the morning as magnesium and potassium citrate, at lunch time as 10 ml of lemon juice and as calcium and sodium citrate with a total daily citrate dose of 3.95 g. The antioxidant melatonin was administered at night to provide a total nightly dose of between 10 mg and 470 mg.

[3] = Blood glucose over 24 hour periods by continuous glucose monitor (CGM); details: 2-40 g citrate daily, 10 months; two non-consecutive days; FIGS. 5(d),(e)
Method: (§2) Citrate was administered to the subject with a total daily citrate dose of between 2 and 40 g for a period of 10 months. Blood glucose levels were measured over separate 24 hour periods using a continuous glucose monitor (CGM) purchased from Dexcom.

C reactive protein (CRP) = test: CRP level in the blood of the subject
Method: as §1
CRP levels were reduced from 0.5 mg/L to <0.3 mg/L (0.3 mg/L represents the lower limit of detection) following two months of citrate administration. A subsequent measurement of CRP using equipment with higher sensitivity identified a CRP level of below 0.16 mg/L. The Inventor believes that reduced CRP levels result from increased differentiation of senescent stem cells and reduced production of senescent cells via cell dedifferentiation.

[4] = Concentration of key biomarkers in the blood (HbA1c, folate, glucose)
Method: as §2
The Inventor also measured haemoglobin A1C (HbA1c) which can be used as a diagnostic marker for diabetes. An HbA1c concentration of >6.4% is indicative of diabetes, and a concentration of 5.7% to 6.4% is indicative of prediabetes.

hair follicle stem cells = test: Hair growth on the scalp of a subject after citrate administration
Method: as §1, with “Citrate was administered to a subject in the morning as magnesium and potassium citrate and at lunch time as 10 ml of lemon juice to provide a total daily citrate dose of 1.85 g. The antioxidant melatonin was administered at night to provide a total nightly dose of between 10 mg and 470 mg. Citrate was administered daily for four weeks. Citrate” for “Citrate”

[5] = Kidney function markers (Cystatin C, creatinine)
Source text: The subject's creatinine levels reached as low as […].

O=C(O)CC(O)(CC(=O)O)C(=O)O [citrate]
number of facial blemishes [1]: 20 | appearance of a precancerous spot on the skin (precancerous spot): reduce the appearance of a precancerous spot | muscle mass [2]: An increase in muscle mass | blood glucose peaks over 24 hour period (CGM) [3]: no significant glucose peaks occurred | CRP level in blood (C reactive protein (CRP); after two months of citrate, baseline 0.5 mg/L, lower limit of detection 0.3 mg/L): < 0.3 mg/L | CRP level, subsequent measurement with higher sensitivity equipment (C reactive protein (CRP); subsequent measurement): below 0.16 mg/L | HbA1c level maintained ([4]; 2-40 g citrate daily): less than 5.7% | HbA1c level, lowest reached ([4]; 2-40 g citrate daily): 4.18% | Glucose concentration in the blood ([4]; following 6 months of citrate administration, reference range 3.3-5.6): 4.53 mmol/L | HbA1C in the blood ([4]; following 6 months of citrate administration, reference range 4-6): 4.18% | hair growth with added red or infrared radiation (hair follicle stem cells; topical red or infrared radiation 600-900 nm in addition to citrate): further improved hair growth | growth of new hairs in areas of the scalp which had suffered hair loss (hair follicle stem cells; total daily citrate dose 1.85 g for four weeks, melatonin at night, FIG. 1): growth of new hairs was observed | growth of thicker and darker hairs (hair follicle stem cells; total daily citrate dose 3.95 g, melatonin at night, compared to Example 1, FIGS. 2-4): growth of hairs which were thicker and darker | creatinine level, lowest reached ([5]; 2-40 g citrate daily, 10 months): 62 mmol/L | Cystatin C level ([5]; following 3 months of citrate, 2-40 g daily, baseline 0.98 mg/L): 0.89 mg/L
